Measured values taken from patent US12729381B2, “Methods and compositions for inactivating interleukin-2-inducible t-cell kinase (ITK)” (priority 2020, dated 2026).
Non-standard residues stand in square brackets, D forms with d. No end group written: not given here. *: point of attachment. FITC = O=C1OC2(c3ccc(O)cc3Oc3cc(O)ccc32)c2ccc(NC(=S)*)cc21; pY = N[C@@H](Cc1ccc(OP(=O)(O)O)cc1)C(=O)O

Key:
[1] = tested on: SLP76: ITK signaling; experiment: Western blot of signaling proteins in mouse T cells stimulated with anti-CD3 and anti-CD28; assay type: cell-based
Procedure: Western blotting: For protein analysis, T cells were either nonstimulated, or stimulated with anti-CD3 and anti-CD28 for 24 hours overnight, and were lysed with freshly prepared lysis buffer (RIPA Buffer (Fisher Scientific cat #PI89900)+cOmplete Protease Inhibitor Cocktail (Sigma-Aldrich; cat #11697498001)) and centrifuged for 10 minutes at 14000 rpm at 4° C. Protein aliquots of 70 μg of protein were loaded on a 12-18% denaturing polyacrylamide gel and transferred to nitrocellulose membranes for immunoblot analysis using antibodies specific to proteins of interest.
To ensure that the peptide easily enters cells and that its cellular localization can be monitored, a C-terminal TAT peptide (GRKKRRQRRRPQ) (SEQ ID NO:3) and an N-terminal fluorescent FITC dye were incorporated, respectively, and named it SLP76pTYR peptide ([…]). SLP76pTYR peptide (FITC Dye ^132NEEEEAPVEDDADpYEPPPSNDEEA^155-TAT) (SEQ ID NO:5) and non-specific control peptide (FITC Dye-[…]-TAT) (SEQ ID NO:6) were synthesized by Genscript Inc (Piscataway, NJ). These peptides were initially dissolved in 3% ammonia water to a final concentration of 10 mg/mL and then further diluted into PBS to a final concentration of 0.1 mg/mL. Fresh splenocytes were isolated from WT mice, and T cells were generated from splenocytes as previously described (Baker et al., 2001). Briefly, T cells were isolated from splenocytes using MACS beads (Miltenyi Biotec), then cultured in complete RPMI media (3×10^6 cells/mL) and plated on anti-CD3 ([…]; Biolegend; cat #100202) and anti-CD28 ([…]; Biolegend; cat #102116) antibody-coated tissue culture plates until otherwise specified. T cells were incubated with SLP76pTYR, control peptide or vehicle alone at different concentrations ranging from 100 ng/ml to 1 mg/ml in the presence of 4 mg/ml of protamine sulfate. […] Within 60 minutes, it was observed that peptides were inside the cells. Cells were cultured for 5 minutes prior to investigating signaling changes. Cells were examined for the presence of FITC by microscopy using a Leica DMi8 microscope equipped with an infinity total internal reflection fluorescence (TIRF) and DIC modules, a Lumencor SOLA SE II light box, a 150 mW 488 (GFP) laser and filter cube, a 100x/1.47 NA objective, and an Andor iXon Life 897 EMCCD camera. FITC expression was confirmed by flow cytometry as well. Cells were lysed and used in Western blots.
ITK deficiency is known to enhance the development of regulatory T cells (Tregs) (Elmore et al., 2020, Owen et al., 2019) so the peptide inhibitor was tested to determine whether inhibition of the ITK: SLP76Y145 interactions using SLP76pTYR would induce Tregs. First, the frequency of Tregs was examined by expression of CD4^+ and FoxP3^+ (FIG. 18A). Next, total mouse T cells were stimulated with anti-CD3 (Sugie et al., 2004) in the presence of either SLP76pTYR, nonspecific peptide, or vehicle alone for 5 to 24 hours, and cells were harvested and examined for the presence of Tregs (CD4^+CD25^+FoxP3^+). […] Next, the effects of SLP76pTYR peptide on human PBMC samples from healthy human patients was investigated. T cells from these patients were stimulated with anti-CD3 (OKT3) (Karimi et al., 2005) for 5 minutes in the presence of SLP76pTYR or vehicle alone. […] No differences in stimulated or unstimulated total human AKT (FIG. 18E and FIG. 28H) was observed, providing a showing that the SLP76pTYR peptide has an impact on signaling pathways downstream of SLP76 in both mouse and human T cells. […] Next, the ability of SLP76pTYR peptide to affect the production of proinflammatory cytokines in human PBMCs was investigated. T cells from healthy human were stimulated with anti-CD3 (OKT3) and anti-CD28 in the presence of SLP76pTYR or vehicle alone, along with Brefeldin A. T cells incubated with SLP76pTYR or vehicle alone were also examined in the presence of PMA+lonomycin and Brefeldin A for 6 hours. […]

[2] = tested on: T cells from GVHD patient blood samples; experiment: T cells from GVHD patient blood samples treated with SLP76pTYR; assay type: cell-based, human
[3] = anti-CD3 and anti-CD28 for 5 minutes, vs vehicle alone

FITC Dye ^132NEEEEAPVEDDADpYEPPPSNDEEA^155-TAT ({FITC}-NEEEEAPVEDDAD[pY]EPPPSNDEEAGRKKRRQRRRPQ) [SLP76pTYR]
off-target effects against other kinases ([1]; PI3K and AKT, mouse and human T cells (FIG. 28A-H)): minimal off-target effects against other kinases, including PI3K and AKT
ITK phosphorylation, stimulated [1, 3]: reduction in ITK phosphorylation
PLCγ-1 phosphorylation, stimulated [1, 3]: a reduction in stimulated phosphorylation PLCγ-1 was observed
ITK phosphorylation, non-stimulated ([1]; non-stimulated cells, vs vehicle alone): A reduction in non-stimulated phosphorylation ITK was not observed
phosphorylation of AKT ([1]; stimulated and non-stimulated, also total AKT): No differences in the phosphorylation of PI3K or AKT was observed
phosphorylation of PI3K ([1]; stimulated and non-stimulated, also total PI3K): No differences in the phosphorylation of PI3K or AKT was observed
non-stimulated phospho-PLCγ-1 and stimulated or non-stimulated PLCγ-1 ([1]; vs vehicle alone): no reduction with non-stimulated phospho-PLCγ-1or either stimulated or non-stimulated PLCγ-1 was observed
total ITK, stimulated or non-stimulated ([1]; vs vehicle alone): nor was any reduction for non-stimulated total ITK or stimulated total ITK observed
IFN-γ production [2]: significantly reducing IFN-γ and TNF-αproduction
TNF-α production [2]: significantly reducing IFN-γ and TNF-αproduction
development of FoxP3+ regulatory T cells [2]: enhances the development of FoxP3^+ regulatory T cells
